Earlier results on 71 molecules are cited in PMC12525602, “Identification of Selective α-Glucosidase Inhibitors via Virtual Screening with Machine Learning” (Molecules, 2025).

In one data set the test system is α-glucosidase. The note with it: 300-compound dataset of reported inhibitors and ineffective compounds, Table S4; cited from earlier work.
`COc1cc(-c2oc3cc(O)cc(O)c3c(=O)c2O[C@@H]2O[C@H](CO)[C@@H](O)[C@H](O)[C@H]2O)ccc1O` [compound 1, COC1=C(O)C=CC(C2=C(O[C@H]3[C@H](O)[C@@H](O)[C@H](O)[C@@H](CO)O3)C(C4=C(O)C=C(O)C=C4O2)=O)=C1]: the “activity (label in modeling dataset)” value was 0. Regarding `COc1ccc(S(=O)(=O)NNC(=O)c2cc3cc(F)ccc3[nH]2)cc1OC` [compound 3, FC1=CC=C(NC(C(NNS(=O)(C2=CC(OC)=C(OC)C=C2)=O)=O)=C3)C3=C1], the “activity (label in modeling dataset)” value is on record as 0.

Still in this data set, the particulars now being: Table S5 modeling dataset; activity label 1 = active, 0 = inactive; cited from earlier work.
For `O=C(NNS(=O)(=O)c1ccc(OC(F)(F)F)cc1)c1cc2cc(F)ccc2[nH]1` [compound 94], the activity is recorded as 0. As to `O=C(c1ccccc1)c1ccc2nc(-c3ccc(Cl)cc3)[nH]c2c1` [compound 114], the activity is 0. `N#Cc1c(-c2ccncc2)cc(-c2ccc(Cl)cc2)c(C#N)c1N` [compound 113]: the activity is reported as 0. Turning to `Fc1ccc(CSc2nnc(COc3cccc4cccnc34)o2)cc1` [compound 128], the activity is 0. Take `CCCCCCCC/C=C\CCCCCCCCCC(=O)O` [compound 98]: the activity is reported as 0. With `O=C(c1ccccc1)c1ccc2nc(-c3ccc(Cl)cc3Cl)[nH]c2c1` [compound 110], the activity is recorded as 0. As for `C[n+]1cccc(C(=O)[O-])c1` [compound 133], the activity is on record as 0. Consider `N#Cc1ccc2[nH]c(-c3nnc(Nc4ccccc4Cl)s3)cc2c1` [compound 125], for which the activity is recorded as 0.

Still in this data set, the particulars now being: activity label in the 300-compound modeling dataset (Table S5); 1 = active, 0 = inactive; cited from earlier work.
With `CC1CCN(c2ccc(/C=N/Nc3nc(-c4ccc(O)cc4)cs3)cc2)CC1` [compound 194], the activity is 1. Take `O=[N+]([O-])c1ccc(-c2nnc(/N=C(/CSc3nnc4c(n3)[nH]c3ccccc34)c3ccc(-c4ccccc4)cc3)s2)cc1` [compound 230]: the activity is reported as 1.

Take `COc1ccc(/C(CSc2nnc3c(n2)[nH]c2ccccc23)=N\c2nnc(-c3ccc([N+](=O)[O-])cc3)s2)cc1` [compound 217]: the activity is on record as 1.

For the molecule `Cc1ccc(-c2cc(C(F)(F)F)nn2-c2ccc(S(=O)(=O)NC(=O)c3ccccc3[N+](=O)[O-])cc2)cc1` [compound 201], the activity is on record as 1.

`O=C(CCc1ccc(NS(=O)(=O)c2ccc(C(F)(F)F)cc2)cc1)N1CC[C@H](O)[C@H](O)C1` [compound 225]: the activity is 1. For the molecule `C=C(C)[C@@H]1CCC2=Cc3nc(NC(=O)c4ccc(Cl)cc4)sc3[C@@H](C)[C@]2(C)C1` [compound 220], the activity is reported as 1. In the case of `Oc1cccc(-c2cc3cccc(Br)c3o2)c1` [compound 209], the activity is on record as 1. Take `COc1cccc(C(=O)C2C(O)c3ccccc3S(=O)(=O)N2CC(=O)Nc2ccc(Br)cc2)c1` (stereo not shown) [compound 202]: the activity is 1. `COc1cc(/C=C/C(=O)O)cc(-c2cc(/C=C/C(=O)O)cc(OC)c2O)c1O` [compound 205]: the activity is listed as 1.

Take `O=c1c(O)c(-c2ccc(O)c(O)c2)oc2cc(O)ccc12` [compound 231]: the activity is 1. Regarding `COc1cc(/C=N/N=C2\C(=O)Nc3ccccc32)ccc1OCc1cn(Cc2ccccc2)nn1` [compound 224], the activity is on record as 1.

The data set is the same for the next values; noted with them: activity label of the 300-compound modeling dataset, Table S5; cited from earlier work.
For the molecule `O=C(/C=C/c1ccc(O)c(F)c1)c1cccc2[nH]c(=O)oc12` [compound 246], the activity is 1.

For `Cc1ccc(C(=O)COc2c(I)cc(Cl)c3cccnc23)cc1` [compound 238], the activity is 1. As to `O=C(COc1c(I)cc(Cl)c2cccnc12)c1ccc([N+](=O)[O-])cc1` [compound 248], the activity is reported as 1. As for `CC(C)(C)c1ccc(N/N=C/C2CC(=O)c3ccccc3O2)cc1` (stereo not shown) [compound 234], the activity is reported as 1. As for `O=C1CC(/C=N/Nc2cccc(Br)c2)Oc2ccccc21` (stereo not shown) [compound 233], the activity is 1. On to `Cc1ccccc1Cn1cc(COc2ccc(/C=N/N=C3\C(=O)Nc4ccccc43)cc2)nn1` [compound 263], for which the activity is listed as 1. `O=C(/C=C/c1cc(F)c(O)c(F)c1)c1cccc2[nH]c(=O)oc12` [compound 245]: the activity is on record as 1. As to `O=C(/C=C/c1ccc(O)c(O)c1)c1cccc2[nH]c(=O)oc12` [compound 274], the activity is 1.

For the molecule `CN(C)c1ccc(/C=N/CCc2ccc(O)cc2)cc1` [compound 258], the activity was 1. `COc1ccccc1/C(CSc1nnc2c(n1)[nH]c1ccccc12)=N\c1nnc(-c2ccc(Cl)c(Cl)c2)s1` [compound 243]: the activity was 1.

The data set is the same for the next values; noted with them: activity label of the modeling dataset (Table S5), α-glucosidase; 1 = active, 0 = inactive; cited from earlier work.
For `COc1cc(-c2oc3cc(O)cc(O)c3c(=O)c2O[C@@H]2O[C@H](CO)[C@@H](O)[C@H](O)[C@H]2O)ccc1O` [compound 1, COC1=C(O)C=CC(C2=C(O[C@H]3[C@H](O)[C@@H](O)[C@H](O)[C@@H](CO)O3)C(C4=C(O)C=C(O)C=C4O2)=O)=C1], the activity was 0. With `O=C(c1ccccc1)c1ccc2nc(-c3ccc(O)cc3O)[nH]c2c1` [compound 9], the activity is on record as 0. On to `O=C(c1ccccc1)c1ccc2nc(-c3ccccc3O)[nH]c2c1` [compound 30], for which the activity was 0. With `N#Cc1ccc2[nH]c(-c3nnc(Nc4ccccc4Br)s3)cc2c1` [compound 11], the activity is listed as 0. In the case of `N#Cc1c(-c2ccncc2)cc(-c2cccc(Cl)c2)c(C#N)c1N` [compound 36], the activity is 0. With `COc1ccc(Nc2nnc(-c3cc4cc(C#N)ccc4[nH]3)s2)cc1` [compound 40], the activity is recorded as 0. Turning to `N#Cc1ccc2[nH]c(-c3nnc(Nc4ccc(Cl)cc4)s3)cc2c1` [compound 23], the activity is 0.

In the case of `CC1CCN(c2ccc(/C=N/Nc3nc(-c4ccc(Br)cc4)cs3)cc2)CC1` [compound 15], the activity was 0. `O=c1c(O[C@@H]2O[C@H](CO)[C@H](O)[C@H](O)[C@H]2O)c(-c2ccc(O)c(O)c2)oc2cc(O)cc(O)c12` [compound 38]: the activity was 0. On to `COc1ccc(S(=O)(=O)NNC(=O)c2cc3cc(F)ccc3[nH]2)cc1OC` [compound 3, FC1=CC=C(NC(C(NNS(=O)(C2=CC(OC)=C(OC)C=C2)=O)=O)=C3)C3=C1], for which the activity is reported as 0. For the molecule `O=c1c(O[C@@H]2O[C@H](CO)[C@@H](O)[C@H](O)[C@H]2O)c(-c2ccc(O)c(O)c2)oc2cc(O)cc(O)c12` [compound 31], the activity is 0. `Brc1ccc(Cn2cc(CSc3nnc(COc4cccc5cccnc45)o3)nn2)cc1` [compound 33]: the activity is given as 0. `N#Cc1c(-c2ccncc2)cc(-c2cccnc2)c(C#N)c1N` [compound 25]: the activity is listed as 0.

The data set is the same for the next values; noted with them: activity label of the modeling dataset, Table S5 (1 = active, 0 = inactive); cited from earlier work.
`CCCCCCSc1nnc(COc2cccc3cccnc23)o1` [compound 51]: the activity was 0. With `Cc1ccc(S(=O)(=O)NNC(=O)c2cc3cc(F)ccc3[nH]2)cc1` [compound 53], the activity is listed as 0. For the molecule `O=C(NNS(=O)(=O)c1cccc2ncccc12)c1cc2cc(F)ccc2[nH]1` [compound 90], the activity is recorded as 0. As for `Fc1ccc(CSc2nnc(COc3cccc4cccnc34)o2)cc1F` [compound 80], the activity is on record as 0. For `CCCCCn1cc(CSc2nnc(COc3cccc4cccnc34)o2)nn1` [compound 82], the activity is 0. With `Fc1cccc(CSc2nnc(COc3cccc4cccnc34)o2)c1` [compound 47], the activity is 0. In the case of `Clc1ccc(-n2cc(CSc3nnc(COc4cccc5cccnc45)o3)nn2)c(Cl)c1` [compound 49], the activity is 0. Take `N#Cc1c(-c2ccc(Cl)cc2)cc(-c2cccc(Br)c2)c(C#N)c1N` [compound 46]: the activity was 0. In the case of `CCCCCSc1nnc(COc2cccc3cccnc23)o1` [compound 55], the activity is 0.

The data set is the same for the next values; noted with them: activity label of the modeling dataset, Table S5; cited from earlier work.
As for `O=C(NNS(=O)(=O)c1ccc(Br)cc1)c1cc2cc(F)ccc2[nH]1` [compound 182], the activity is on record as 1. In the case of `COc1ccc(/C(CSc2nnc3c(n2)[nH]c2ccccc23)=N\c2nnc(-c3cc(Br)ccc3OC)s2)cc1` [compound 173], the activity is recorded as 1.

Turning to `N#Cc1ccc2[nH]c(-c3nnc(Nc4cccc([N+](=O)[O-])c4)s3)cc2c1` [compound 154], the activity is 1. On to `COc1cc(/C=C(\C(=O)O)c2cc(/C=C/C(=O)O)cc(OC)c2O)ccc1O` [compound 166], for which the activity is 1. Take `CCCCCCCCCCCCCC(=O)O` [compound 141]: the activity is 0.

Turning to `CC(C)=CCC1=C(O)[C@@](O)(CC=C(C)C)C(=O)C(C(=O)CC(C)C)=C1O` [compound 138], the activity is 0. Take `Cc1ccccc1Cn1cc(COc2ccc(/C=N/N=C3\C(=O)N(c4ccc(Br)cc4)c4ccccc43)cc2)nn1` [compound 146]: the activity is listed as 0. Take `COc1cc(O)c(CC=C(C)C)c(O)c1C(=O)/C=C/c1ccc(O)cc1` [compound 167]: the activity is 1. Take `N#Cc1ccc2[nH]c(-c3nnc(Nc4ccccc4F)s3)cc2c1` [compound 184]: the activity is 1. As for `COc1cc(/C=C(\Oc2ccc(/C=C/C(=O)O)cc2OC)C(=O)O)ccc1O` [compound 157], the activity is on record as 1.

The same data set, now with this note: activity label of the modeling dataset, sheet Table S5; 1 = active, 0 = inactive; cited from earlier work.
For the molecule `c1ccc(-c2ccc(-c3cnc4ccccc4n3)cc2)cc1` [compound 288], the activity was 1. For the molecule `Clc1cccc(-c2cnc3ccccc3n2)c1` [compound 290], the activity is recorded as 1. On to `CCC/C=N/N=C(/C)c1ccc([N+](=O)[O-])cc1` [compound 285], for which the activity was 1. Regarding `O=c1c(O)c(-c2ccc(O)c(O)c2)oc2cc(O)cc(O)c12` [compound 289], the activity is 1.

Turning to `Clc1ccc(-c2cnc3ccccc3n2)cc1Cl` [compound 295], the activity is on record as 1. As to `COC(=O)Cn1c(=O)oc2c(C(=O)/C=C/c3ccc(O)cc3)cccc21` [compound 287], the activity is listed as 1. In the case of `COc1ccc(/C=N/N=C(/C)c2ccc([N+](=O)[O-])cc2)cc1` [compound 279], the activity is recorded as 1. With `CCOC(=O)c1c(SCC(=O)Nc2ccccc2)nnc(-c2ccccc2)c1-c1ccccc1` [compound 292], the activity is reported as 1. Turning to `Cc1cc2ncc(-c3ccccc3)nc2cc1C` [compound 294], the activity is reported as 1. Consider `O=[N+]([O-])c1ccc(-c2cnc3ccccc3n2)cc1` [compound 286], for which the activity is on record as 1.
